Laboratory results from patent publication US11273250B2, “Devices, systems, and methods for excavating cancer cells” (GEORGIA TECH RESEARCH CORPORATION, priority 2010, dated 2022).

Columns and labels:
tumor cells = experiment: Viability of tumor cells at different concentrations of cyclopamine; assay type: cell-based; settings: concentration suggested for conjugation to the collagen hydrogel scaffold
Protocol: (§1) The smoothened inhibitor, cyclopamine, was evaluated to determine the effective drug concentration required to induce apoptosis in tumor cells. The viability of the tumors cells was measured at different concentrations of cyclopamine. Healthy cells (e.g., neurons and glia) were not affected by exposure to the drug.

[1] = system: Healthy cells (e.g., neurons and glia); experiment: Effect of cyclopamine exposure on healthy cells; assay type: cell-based
Protocol: as §1

CC1=C2C[C@H]3[C@@H](CC=C4C[C@@H](O)CC[C@@]43C)[C@@H]2CC[C@]12O[C@@H]1C[C@H](C)CN[C@H]1[C@H]2C [cyclopamine]
effective drug concentration required to induce apoptosis in tumor cells (tumor cells): 30 µM
effect of exposure to the drug on healthy cells [1]: not affected
